Source: paper PMC10977697 (PLOS ONE, 2024)
Where no end group is shown, it is not given here.

Tested on: EpCAM
Assay: Spot phage ELISA, EpCAM
Type: binding, human
Details: spot phage ELISA signal-to-noise on EpCAM

Sequence	S/N
CKQDSDCLLVCLGPNGFCG (disulfide (positions not given here)) [EpCAM EET I-II 28]	18
GCFRHYVRCKQDSDCLAGCVCWFDWSCG (disulfide (positions not given here)) [EpCAM EET I-II 13]	20.8
GCHRWGILCKQDSDCLAGCVCWQQGQCG (disulfide (positions not given here)) [EpCAM EET I-II 35]	15
GCIKNNLRCKQDSDCLAGCVCWYDAACG (disulfide (positions not given here)) [EpCAM EET I-II 32]	16.9
GCKNDKIRCKQDSDCLAGCVCWEDPSCG (disulfide (positions not given here)) [EpCAM EET I-II 22]	18.9
GCMQWYIWCKQDSDCLAGCLYRSLPLD (disulfide (positions not given here)) [EpCAM EET I-II 9]	21.9
GCPRILMRCKQDSDCEAICG (disulfide (positions not given here)) [EpCAM EET I-II 8]	21.9
GCPRILMRCKQDSDCHAFCG (disulfide (positions not given here)) [EpCAM EET I-II 30]	17.5
GCPRILMRCKQDSDCHPVCG (disulfide (positions not given here)) [EpCAM EET I-II 20]	19.5
GCPRILMRCKQDSDCHWFCG (disulfide (positions not given here)) [EpCAM EET I-II 15]	20.7
GCPRILMRCKQDSDCHWVCG (disulfide (positions not given here)) [EpCAM EET I-II 39]	6.6
GCPRILMRCKQDSDCLAGCGLSSGLVVW (disulfide (positions not given here)) [EpCAM EET I-II 1]	24
GCPRILMRCKQDSDCLAGCVCENGIMCG (disulfide (positions not given here)) [EpCAM EET I-II 25]	18.6
GCPRILMRCKQDSDCLAGCVCPGNILCG (disulfide (positions not given here)) [EpCAM EET I-II 29]	17.9
GCPRILMRCKQDSDCLAGCVCWPGWPCG (disulfide (positions not given here)) [EpCAM EET I-II 7]	22
GCPRILMRCKQDSDCLAGCVCWPGWPCG (disulfide (positions not given here)) [EpCAM EET I-II 19]	19.6
GCPRILMRCKQDSDCLAGCVLNGLVSWYT (disulfide (positions not given here)) [EpCAM EET I-II 38]	7.1
GCPRILMRCKQDSDCLALCCNERNICG (disulfide (positions not given here)) [EpCAM EET I-II 18]	19.7
GCPRILMRCKQDSDCLCGCV (disulfide (positions not given here)) [EpCAM EET I-II 11]	21.4
GCPRILMRCKQDSDCLPVCG (disulfide (positions not given here)) [EpCAM EET I-II 17]	19.8
GCPRILMRCKQDSDCMPVCG (disulfide (positions not given here)) [EpCAM EET I-II 4]	23
GCPRILMRCKQDSDCQAFCG (disulfide (positions not given here)) [EpCAM EET I-II 23]	18.7
GCPRILMRCKQDSDCQAVCG (disulfide (positions not given here)) [EpCAM EET I-II 27]	18.1
GCPRILMRCKQDSDCQLVCLFPGLLVG (disulfide (positions not given here)) [EpCAM EET I-II 36]	14.3

Sequence	S/N
GCPRILMRCKQDSDCQPFCG (disulfide (positions not given here)) [EpCAM EET I-II 6]	22.2
GCPRILMRCKQDSDCQPICG (disulfide (positions not given here)) [EpCAM EET I-II 21]	19.1
GCPRILMRCKQDSDCQPVCG (disulfide (positions not given here)) [EpCAM EET I-II 5]	22.8
GCPRILMRCKQDSDCQPVCG (disulfide (positions not given here)) [EpCAM EET I-II 10]	21.9
GCPRILMRCKQDSDCQWFCG (disulfide (positions not given here)) [EpCAM EET I-II 12]	20.9
GCPRILMRCKQDSDCRPVCG (disulfide (positions not given here)) [EpCAM EET I-II 34]	15.7
GCPRILMRCKQDSDLSSWLCLCCYDSVC (disulfide (positions not given here)) [EpCAM EET I-II 37]	9.5
GCPRILMRCKQDSELSSWLCLCCSGLVC (disulfide (positions not given here)) [EpCAM EET I-II 14]	20.8
GCPRILMRCKQDSELSSWLCLCCSGSLC (disulfide (positions not given here)) [EpCAM EET I-II 26]	18.3
GCPRILMRCKQDSGLSSWLCLCCSASVC (disulfide (positions not given here)) [EpCAM EET I-II 16]	20.6
GCPRSHVRVFFSCKQDSDCLAGCVCFQVVC (disulfide (positions not given here)) [EpCAM EET I-II 31]	17.4
GCRARPLVCKQDSDCLAGPNGFCG (disulfide (positions not given here)) [EpCAM EET I-II 24]	18.6
GCRNTMVRCKQDSDCLAGCVCYFDPSCG (disulfide (positions not given here)) [EpCAM EET I-II 33]	15.8
GCRRMGVRCKQDSDCLAGCVCWHDPQCG (disulfide (positions not given here)) [EpCAM EET I-II 3]	23
GCSFPLIRCKQDSDCQLVVLWSKRFCG (disulfide (positions not given here)) [EpCAM EET I-II 2]	23.6
GPTQSHYGQCGGAGYVGTIKCSGTTCQYVLKPQSQCLPGAS (disulfide (positions not given here)) [EpCAM CBD 54]	9.4
GPTQSHYGQCGGDGYHGAIHCSGTTCQYVMMNRSQCLPGAS (disulfide (positions not given here)) [EpCAM CBD 59]	8.9
GPTQSHYGQCGGDGYTGMIRCSGTTCQFVAKKHSQCLPGAS (disulfide (positions not given here)) [EpCAM CBD 40]	11.8
GPTQSHYGQCGGDGYVGAILCSGTTCQHVSVFPSQCLPGAS (disulfide (positions not given here)) [EpCAM CBD 56]	9.3
GPTQSHYGQCGGEGYKGAIVCSGTTCQQTKLQGSQCLPGAS (disulfide (positions not given here)) [EpCAM CBD 75]	7.7
GPTQSHYGQCGGEGYLGALRCSGTTCQYTQIKPSQCLPGAS (disulfide (positions not given here)) [EpCAM CBD 8]	21.8
GPTQSHYGQCGGFGYHGYIVCSGTTCQSRQYDNSQCLPGAS (disulfide (positions not given here)) [EpCAM CBD 21]	17.2
GPTQSHYGQCGGFGYIGVVRCSGTTCQPHQYFRSQCLPGAS (disulfide (positions not given here)) [EpCAM CBD 32]	15.1
